Laboratory results published in patent US20250057813A1, “APOPTOSIS RELATED PROTEIN IN THE TGF-BETA SIGNALING PATHWAY (ARTS) MIMETIC COMPOUNDS, COMPOSITIONS, METHODS AND USES THEREOF IN INDUCTION OF APOPTOSIS” (Carmel-Haifa University Economic Corporation Ltd., priority 2022, published 2025).

Tested on: MCF10AT1K (M2) cells
Assay: TUNEL assay in M2 cells in 3D BME system
Format: cell-based, Human
Details: 40 μM, 24 h
Procedure: Cells were harvested from their growth plates using 0.25% trypsin EDTA. Collected cells were cultured in Cultrex® growth factor reduced Basement Membrane Extract (BME: Trevigen, Inc) as follows: An 8 chamber glass slide system (Lab-TEK® II, Naperville, IL) was coated with 60 μl BME [Barkan D. et al., Cancer Research (2008)](protein concentration between […]; thickness-1-2 mm). 5×10^3 cells per well were re-suspended in DMEM/F12 supplemented with 2.5% DHS and 2% BME and cultured on the coated slides. Slides were incubated at 37° C., 5% CO2 incubator. Cells were re-fed every 4 days. Cell morphology was monitored by light microscopy. Immunofluorescence images were captured by Nikon Al—R confocal laser scanning microscope (Haifa University, Haifa, Israel).
The cells were cultured as described above in 8 well chamber glass slides, fixed according to Barkan's immunofluorescence staining protocol and incubated for 1 hour with a mixture of TUNEL reaction mix according to the manufacturer's protocol (In Situ Cell death Detection Kit, TMR Red; Roche, Cat #12-156-792-910) covered with aluminum foil and placed in the 37° C., 5% CO2 incubator. Following incubation, slides were washed three times with PBS for 5 minutes each, and mounted with […] mounting medium with DAPI. DAPI stain was used to assess total cell number. […]

Cn1ccnc1C(=O)c1ccc(NC(=O)C(=O)N[C@H](CO)Cc2ccccc2)cc1 [B3, (S)-N1-(1-hydroxy-3-phenylpropan-2-yl)-N2-(4-(1-methyl-1H-imidazole-2-carbonyl)phenyl)oxalamide]
number of cells positive for TUNEL staining: significant increase
